Reference: PubChem BioAssay AID2050 (NMMLSC, 2009)
Active and inactive are the calls of the source.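 The calls were made as follows: active = EC50 at or below 30 µM together with a response span of at least a set limit; inactive = the rest.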

Each compound was assayed against GTPase HRas (Homo sapiens) (UniProt P01112) (assay: inhibition of fluorescent GTP binding to activated Ras – biochemical, pyrazoline analogs, multiplex bead flow cytometry, SAR follow-up (AID 2050)). Conditions: GST-Ras beads, Bodipy-FL-GTP binding.
Sequence of GTPase HRas (Homo sapiens) (P01112 whole entry, looked up): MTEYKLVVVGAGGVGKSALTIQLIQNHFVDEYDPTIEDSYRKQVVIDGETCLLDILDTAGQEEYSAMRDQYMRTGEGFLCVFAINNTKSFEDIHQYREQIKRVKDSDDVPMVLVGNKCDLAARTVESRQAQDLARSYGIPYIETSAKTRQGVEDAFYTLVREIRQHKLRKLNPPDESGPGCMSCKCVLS

EC50, inactive:
COc1ccc(C2CC(c3cccs3)=NN2c2ccc(S(N)(=O)=O)cc2)cc1 (configuration not stated) > 30 µM
NS(=O)(=O)c1ccc(N2N=C(c3ccccc3)CC2c2ccccc2)cc1 (configuration not stated) > 30 µM
Fc1ccc(C2=NN(c3cccc(Br)c3)C(c3ccccc3)C2)cc1 (configuration not stated) > 30 µM
COc1ccc(C2CC(c3cccc(Cl)c3)=NN2c2ccc(S(N)(=O)=O)cc2)cc1 (configuration not stated) > 30 µM
COc1ccc(C2CC(c3ccc(F)cc3)=NN2c2ccccc2)cc1OC (configuration not stated) > 30 µM
NS(=O)(=O)c1ccc(N2N=C(c3ccccc3)CC2c2ccc(Cl)cc2)cc1 (configuration not stated) > 30 µM
COc1ccc(C2=NN(c3ccccc3)C(c3ccccc3C(F)(F)F)C2)cc1 (configuration not stated)
NS(=O)(=O)c1ccc(N2N=C(c3ccc(Cl)cc3)CC2c2ccccc2)cc1 (configuration not stated)
NS(=O)(=O)c1ccc(N2N=C(c3ccccc3)CC2c2ccccc2Cl)cc1 (configuration not stated) > 30 µM
O=S(=O)(O)c1ccc(N2N=C(c3ccccc3)CC2c2ccccc2)cc1 (configuration not stated) > 30 µM
COc1ccc(C2=NN(c3ccccc3F)C(c3ccc(F)cc3)C2)cc1 (configuration not stated) > 30 µM
COc1ccc(C2CC(c3ccc(Br)cc3)=NN2c2ccc(S(N)(=O)=O)cc2)cc1 (configuration not stated) > 30 µM
COc1ccc(C2CC(c3ccccc3)=NN2c2cccc(S(N)(=O)=O)c2)cc1 (configuration not stated) > 30 µM
COc1ccc(C2=NN(c3ccc(S(N)(=O)=O)cc3)C(c3ccc(OC)cc3)C2)cc1 (configuration not stated) > 30 µM
Cc1cccc(C2CC(c3ccccc3)=NN2c2ccc(S(N)(=O)=O)cc2)c1 (configuration not stated) > 30 µM
COc1ccccc1C1CC(c2ccccc2)=NN1c1ccc(S(N)(=O)=O)cc1 (configuration not stated) > 30 µM
COc1ccc(C2=NN(c3cccc(F)c3)C(c3ccc(Cl)cc3)C2)cc1 (configuration not stated) > 30 µM
COc1ccc(C2CC(c3ccccc3)=NN2c2ccc(C(=O)O)cc2)cc1 (configuration not stated) > 30 µM
COc1ccc(C2CC(c3ccc(Cl)cc3)=NN2c2ccc(S(N)(=O)=O)cc2)cc1 (configuration not stated) > 30 µM
CN(C)c1ccc(C2CC(c3ccccc3)=NN2c2ccccc2)cc1 (configuration not stated) > 30 µM
COc1ccc(C2=NN(c3ccccc3)C(c3ccc(OC)c(OC)c3C(=O)O)C2)cc1 (configuration not stated) > 30 µM
COc1ccc(C2CC(c3ccc(Cl)cc3)=NN2c2ccccc2)cc1OC (configuration not stated) > 30 µM
COc1ccc(C2CC(c3cccc(Br)c3)=NN2c2ccc(S(N)(=O)=O)cc2)cc1 (configuration not stated) > 30 µM
NS(=O)(=O)c1ccc(N2N=C(c3ccccc3)CC2c2cccc(Cl)c2)cc1 (configuration not stated) > 30 µM
COc1ccc(C2CC(c3ccccc3F)=NN2c2ccc(S(N)(=O)=O)cc2)cc1 (configuration not stated) > 30 µM
FC(F)(F)c1cccc(N2N=C(c3ccc(Cl)cc3)CC2c2ccccc2Cl)c1 (configuration not stated) > 30 µM
COc1ccc(C2CC(c3ccccc3)=NN2c2ccc([N+](=O)[O-])cc2)cc1 (configuration not stated) > 30 µM
COc1ccc(C2CC(c3ccncc3)=NN2c2ccc(S(N)(=O)=O)cc2)cc1 (configuration not stated) > 30 µM
COc1ccc(C2CC(c3ccccc3)=NN2c2ccc(Cl)c(C(=O)O)c2)cc1 (configuration not stated) > 30 µM
COc1ccc(C2CC(c3cccc(N(C)C)c3)=NN2c2ccc(S(N)(=O)=O)cc2)cc1 (configuration not stated) > 30 µM
NS(=O)(=O)c1ccc(N2N=C(c3ccccc3)CC2c2ccccc2Br)cc1 (configuration not stated) > 30 µM
O=[N+]([O-])c1cccc(C2CC(c3ccc(F)cc3)=NN2c2ccccc2)c1 (configuration not stated) > 30 µM
COc1ccc(C2CC(C3CCCCC3)=NN2c2ccc(S(N)(=O)=O)cc2)cc1 (configuration not stated) > 30 µM
COc1ccc(C2=NN(c3ccc(Cl)c(Cl)c3)C(c3ccc(OC)cc3)C2)cc1 (configuration not stated) > 30 µM
O=S(=O)(c1ccc(N2N=C(c3ccccc3)CC2c2ccccc2)cc1)C(F)F (configuration not stated) > 30 µM
Cc1ccccc1C1CC(c2ccccc2)=NN1c1ccc(S(N)(=O)=O)cc1 (configuration not stated) > 30 µM
COc1ccc(C2CC(c3ccsc3)=NN2c2ccc(S(N)(=O)=O)cc2)cc1 (configuration not stated) > 30 µM
COc1ccc(C2CC(c3ccc(F)cc3)=NN2c2cc(Cl)ccc2Cl)cc1 (configuration not stated) > 30 µM
CN(C)c1ccc(C2CC(c3ccc(Br)cc3)=NN2c2ccccc2)cc1 (configuration not stated) > 30 µM
Fc1ccccc1C1CC(c2ccc(Br)cc2)=NN1c1ccc(Br)cc1 (configuration not stated) > 30 µM
COc1ccc(C2CC(c3ccccc3Br)=NN2c2ccc(S(N)(=O)=O)cc2)cc1 (configuration not stated) > 30 µM
CN(C)c1ccc(C2CC(c3ccc(F)cc3)=NN2c2ccccc2)cc1 (configuration not stated) > 30 µM
COc1ccc(C2CC(c3cccc(F)c3)=NN2c2ccc(S(N)(=O)=O)cc2)cc1 (configuration not stated) > 30 µM
O=C(O)c1ccc(N2N=C(c3ccccc3)CC2c2ccccc2)cc1 (configuration not stated) > 30 µM
COc1ccc(C2CC(c3ccccc3)=NN2c2ccc(C(N)=O)cc2)cc1 (configuration not stated) > 30 µM
COc1ccc(C2CC(c3cccnc3)=NN2c2ccc(S(N)(=O)=O)cc2)cc1 (configuration not stated) > 30 µM
COc1ccc(C2CC(c3cccc(C)c3)=NN2c2ccc(S(N)(=O)=O)cc2)cc1 (configuration not stated) > 30 µM
